{"source": "patent US20090203062A1", "about": "“Method For Identifying And/Or Quantifying Anti-Infective Compounds” (priority 2005, published 2009)", "key": {"Klebsiella pneumoniae [1]": {"tested_on": "Klebsiella pneumoniae", "conditions": "Tetrahymena pyriformis present; compared with the antibiotic activity IC50; FIG. 9", "text": "Preparation of SM no glucose (SM-) and Tetrahymena Medium is as described in example 1. […] Strains description Same Klebsiella pneumoniae strain is used as in example 1. […] Preparation of Tetrahymena pyriformis (Tp): The same Tp is used as in example 1. The day of the screen, resuspend the Tp cells in SM- and distribute Tp cells in the 384 well plates. […] Liquid dispenser for medium distribution Fill the same number of test plates as above with SM- with the liquid dispenser plate filler. (To test the antibiotic activity of the compounds). […] Description of the mother plate of compounds Each mother plate containing 24 columns of compounds is composed of 4 control columns (1, 12, 13 and 24) of DMSO and 320 wells of compounds. The DMSO columns have to be arranged according to the library. […] Transfer of library compounds with the 384 pin replicator. A test plate for quantifying anti-virulence activity contains Tp solution. A test plate for quantifying antibiotic activity contains SM-. […]\nTp, Klebsiella pneumoniae, compound are prepared as described in example 2 and incubated in a matrix containing 384 wells (12×24) wells at 35° C. in humidity saturated incubator. […] Mutations or compound affecting pathogenicity could be assessed in terms of phenotype strength and potency, respectively with decreasing concentration of Tp."}, "Klebsiella pneumoniae [2]": {"tested_on": "Klebsiella pneumoniae", "test": "Klebsiella pneumoniae murine pulmonary infection model", "assay_type": "in vivo", "conditions": "24 h post-infection, female Balb/cN mice", "experimental": "Klebsiella pulmonary infection model was performed by intranasal instillation of 7-8 weeks old female Balb/cN with 20 μl containing […]. Compound or cefotaxime were injected intraperitoneally every 6 hours from the time of infection at the indicated doses. In vivo efficacy was assessed by measuring colony forming units (CFU) loads in the lungs at 24 h hours. Data analysis was performed using GraphPad Software Inc, San Diego, Calif., USA. Lane 1 is the initial load at time zero of the infection. Lane 2 is the load at 24 hours post-infection of mice treated with the vehicle only."}}, "data": [{"smiles": "COc1cc(Cc2cnc(N)nc2N)cc(OC)c1OC", "note": "[trimethoprim]", "values": [{"measurement": "concentration at which the avirulence assay detected the antibiotic, lower than the IC50 of the antibiotic (sub-MIC effect)", "setting": "Klebsiella pneumoniae [1]", "value": 2, "unit": "Log"}]}, {"smiles": "C=CCSc1nnc(C)c(O)n1", "note": "[3-(allylsulfanyl)-5-hydroxy-6-methyl-1,2,4-triazine]", "values": [{"measurement": "reduction of CFU load in the lungs", "setting": "Klebsiella pneumoniae [2]; 225 mg/kg/day intraperitoneally every 6 hours", "value": 4, "unit": "Log"}]}, {"smiles": "CO/N=C(\\C(=O)N[C@@H]1C(=O)N2C(C(=O)O)=C(COC(C)=O)CS[C@H]12)c1csc(N)n1", "note": "[cefotaxime]", "values": [{"measurement": "reduction of CFU load in the lungs", "setting": "Klebsiella pneumoniae [2]; 37.5 mg/kg/day intraperitoneally every 6 hours", "value": 4, "unit": "Log"}]}]}
